Laboratory results published in the NIST ThermoML archive (doi:10.1016/j.jct.2010.03.022).

Settings: for viscosity: 101.3 kPa; for viscosity / mass density: Liquid; for surface tension liquid-gas: Ring tensiometer

CCO [ethanol]
Settings	surface tension liquid-gas [mN/m]	viscosity [mPa·s]
273.15 K	–	1.832
274.77 K	23.59	–
274.87 K	23.54	–
278.6 K	–	1.649
280.56 K	23.15	1.537
281.05 K	22.95	–
281.17 K	23.09	1.527
284.25 K	22.78	1.455
288.21 K	22.7	1.338
288.23 K	22.61	–
288.65 K	22.63	–
293.15 K	22.36	1.203
294.19 K	22.4	1.192
298.15 K	22.25	1.096
298.41 K	22.07	1.088
298.55 K	22.06	1.088
303.15 K	21.63	1.002
303.2 K	21.66	1
308.23 K	21.33	0.914
311.79 K	21.09	0.855
318.99 K	20.2	0.756
321.15 K	–	0.73
323.15 K	–	0.715
328.15 K	–	0.656
333.15 K	–	0.602
338.16 K	–	0.571
343.15 K	–	0.504
346.15 K	–	0.488

Settings	mass density [kg/m3]
278.15 K, 100 kPa	803.3
278.15 K, 2000 kPa	805.9
278.15 K, 4000 kPa	807.3
278.15 K, 6000 kPa	809.2
278.15 K, 8000 kPa	810.6
278.15 K, 10000 kPa	812.7
278.15 K, 15000 kPa	815.8
278.15 K, 20000 kPa	821
278.15 K, 25000 kPa	823.4
278.15 K, 30000 kPa	823.8
278.15 K, 35000 kPa	825.8
283.15 K, 100 kPa	799.5
283.15 K, 2000 kPa	801.7
283.15 K, 4000 kPa	803
283.15 K, 6000 kPa	805.1
283.15 K, 8000 kPa	806.6
283.15 K, 10000 kPa	808.5
283.15 K, 15000 kPa	811.8
283.15 K, 20000 kPa	816.4
283.15 K, 25000 kPa	818.9
283.15 K, 30000 kPa	819.9
283.15 K, 35000 kPa	822.2
288.15 K, 100 kPa	795.3
288.15 K, 2000 kPa	797.5
288.15 K, 4000 kPa	798.8
288.15 K, 6000 kPa	800.9
288.15 K, 8000 kPa	802.6
288.15 K, 10000 kPa	804.2
288.15 K, 15000 kPa	807.8
288.15 K, 20000 kPa	811.9
288.15 K, 25000 kPa	814.5
288.15 K, 30000 kPa	816
288.15 K, 35000 kPa	818.6
293.15 K, 100 kPa	791.2
293.15 K, 2000 kPa	793.2
293.15 K, 4000 kPa	794.5
293.15 K, 6000 kPa	796.7
293.15 K, 8000 kPa	798.5
293.15 K, 10000 kPa	800
293.15 K, 15000 kPa	803.7
293.15 K, 20000 kPa	807.4
293.15 K, 25000 kPa	810.2
293.15 K, 30000 kPa	812.2
293.15 K, 35000 kPa	814.9
298.15 K, 100 kPa	785
298.15 K, 2000 kPa	788.8
298.15 K, 4000 kPa	790.3
298.15 K, 6000 kPa	792.5
298.15 K, 8000 kPa	794.3
298.15 K, 10000 kPa	795.8
298.15 K, 15000 kPa	799.7
298.15 K, 20000 kPa	803.1
298.15 K, 25000 kPa	806
298.15 K, 30000 kPa	808.3
298.15 K, 35000 kPa	811.3
303.15 K, 100 kPa	781.6
303.15 K, 2000 kPa	784.4
303.15 K, 4000 kPa	785.9
303.15 K, 6000 kPa	788.2
303.15 K, 8000 kPa	790.2
303.15 K, 10000 kPa	791.6
303.15 K, 15000 kPa	795.6
303.15 K, 20000 kPa	798.8
303.15 K, 25000 kPa	801.8
303.15 K, 30000 kPa	804.5
303.15 K, 35000 kPa	807.6
308.15 K, 100 kPa	777.9
308.15 K, 2000 kPa	780
308.15 K, 4000 kPa	781.6
308.15 K, 6000 kPa	783.9
308.15 K, 8000 kPa	785.9
308.15 K, 10000 kPa	787.3
308.15 K, 15000 kPa	791.5
308.15 K, 20000 kPa	794.7
308.15 K, 25000 kPa	797.8
308.15 K, 30000 kPa	800.7
308.15 K, 35000 kPa	803.9
313.15 K, 100 kPa	774
313.15 K, 2000 kPa	775.4
313.15 K, 4000 kPa	777.2
313.15 K, 6000 kPa	779.5
313.15 K, 8000 kPa	781.7
313.15 K, 10000 kPa	783.1
313.15 K, 15000 kPa	787.4
313.15 K, 20000 kPa	790.6
313.15 K, 25000 kPa	793.8
313.15 K, 30000 kPa	797
313.15 K, 35000 kPa	800.2
318.15 K, 100 kPa	769.7
318.15 K, 2000 kPa	770.8
318.15 K, 4000 kPa	772.8
318.15 K, 6000 kPa	775.1
318.15 K, 8000 kPa	777.3
318.15 K, 10000 kPa	778.8
318.15 K, 15000 kPa	783.2
318.15 K, 20000 kPa	786.5
318.15 K, 25000 kPa	789.9
318.15 K, 30000 kPa	793.2
318.15 K, 35000 kPa	796.5
323.15 K, 100 kPa	765.2
323.15 K, 2000 kPa	766.2
323.15 K, 4000 kPa	768.4
323.15 K, 6000 kPa	770.7
323.15 K, 8000 kPa	772.9
323.15 K, 10000 kPa	774.5
323.15 K, 15000 kPa	779
323.15 K, 20000 kPa	782.6
323.15 K, 25000 kPa	786.1
323.15 K, 30000 kPa	789.5
323.15 K, 35000 kPa	792.8
328.15 K, 100 kPa	760.4
328.15 K, 2000 kPa	761.5
328.15 K, 4000 kPa	763.9
328.15 K, 6000 kPa	766.2
328.15 K, 8000 kPa	768.5
328.15 K, 10000 kPa	770.3
328.15 K, 15000 kPa	774.8
328.15 K, 20000 kPa	778.7
328.15 K, 25000 kPa	782.3
328.15 K, 30000 kPa	785.7
328.15 K, 35000 kPa	789
333.15 K, 100 kPa	755.4
333.15 K, 2000 kPa	756.7
333.15 K, 4000 kPa	759.4
333.15 K, 6000 kPa	761.6
333.15 K, 8000 kPa	764
333.15 K, 10000 kPa	766
333.15 K, 15000 kPa	770.6
333.15 K, 20000 kPa	774.9
333.15 K, 25000 kPa	778.6
333.15 K, 30000 kPa	782
333.15 K, 35000 kPa	785.2
338.15 K, 100 kPa	750
338.15 K, 2000 kPa	751.8
338.15 K, 4000 kPa	754.9
338.15 K, 6000 kPa	757
338.15 K, 8000 kPa	759.5
338.15 K, 10000 kPa	761.7
338.15 K, 15000 kPa	766.3
338.15 K, 20000 kPa	771.2
338.15 K, 25000 kPa	775
338.15 K, 30000 kPa	778.3
338.15 K, 35000 kPa	781.4
343.15 K, 100 kPa	744.3
343.15 K, 2000 kPa	746.8
343.15 K, 4000 kPa	750.3
343.15 K, 6000 kPa	752.3
343.15 K, 8000 kPa	754.9
343.15 K, 10000 kPa	757.3
343.15 K, 15000 kPa	762
343.15 K, 20000 kPa	767.6
343.15 K, 25000 kPa	771.5
343.15 K, 30000 kPa	774.6
343.15 K, 35000 kPa	777.6
348.15 K, 100 kPa	738.4
348.15 K, 2000 kPa	741.8
348.15 K, 4000 kPa	745.6
348.15 K, 6000 kPa	747.6
348.15 K, 8000 kPa	750.2
348.15 K, 10000 kPa	753
348.15 K, 15000 kPa	757.7
348.15 K, 20000 kPa	764
348.15 K, 25000 kPa	768
348.15 K, 30000 kPa	770.9
348.15 K, 35000 kPa	773.7
353.15 K, 2000 kPa	736.7
353.15 K, 4000 kPa	741
353.15 K, 6000 kPa	742.8
353.15 K, 8000 kPa	745.5
353.15 K, 10000 kPa	748.6
353.15 K, 15000 kPa	753.3
353.15 K, 20000 kPa	760.5
353.15 K, 25000 kPa	764.6
353.15 K, 30000 kPa	767.2
353.15 K, 35000 kPa	769.9
